Assay results: patent publication US8846653B2, “Delta-tocotrienol treatment and prevention of pancreatic cancer” (University of South Florida, priority 2006, dated 2014)

What was measured:
[1] = tested on: MiaPaCa-2 cells; test: MTS assay of MiaPaCa2 cultures, single 50 μM dose; type: cell-based, human; conditions: MiaPaCa2, 50 μM
Protocol: MiaPaCa-2 cells were cultured in complete DMEM media containing 10% fetal bovine serum (FBS) and 1% penicillin-streptomycin, and 1% L-glutamine. BxPc-3 pancreatic cancer cells were cultured in complete RPMI media containing 10% fetal bovine serum (FBS), and 1% penicillin-streptomycin, 1% HEPES buffer, 1% sodium pyruvate and 1% L-glutamine HPDE6-C7 cells were cultured in serum-free keratinocyte SFM media. All cells were maintained at 37° C. in a humidified incubator with 5% CO2. The cells were treated with a single 50 μM dose of vehicle (vehicle only, may be a solvent), T3 alpha (alpha tocotrienol), T3 beta (beta tocotrienol), T3 gamma (gamma tocotrienol), T3 delta (delta tocotrienol), T alpha (alpha tocopherol), T beta (beta tocopherol), TS (tocopherol succinate), GG (geranylgeraniol), SA (succinic acid). A control (no treatment) culture was grown alongside the treatments for comparison. […]

[2] = tested on: human pancreatic ductal epithelial cells transformed with oncogenic K-ras (HPDE-K-ras); test: Proliferation (MTT) of K-ras transformed ductal epithelial cells; type: cell-based; conditions: 72 hours
Protocol: FIGS. 36A and B are graphs showing the effect of tocotrienols on Human Pancreatic Ductal Epithelial Kras Transformed cells (MTT). (A) Tocotrienols (10-100 μM) had no effect on the proliferation of normal immortalized human pancreatic ductal epithelial cells at 72 hours. […] Points, means; bars, SE (n=3). *p<0.001 vs. vehicle. # p<0.02 vs. vehicle
The Ras effector pathways Raf-MEK-ERK and PI3 kinase-AKT are important for cell proliferation and survival, respectively. Pancreatic cancer cell lines (MIA PaCa2, SW1990, BXPC3) and HPDE 6C7 cells were treated with 8-tocotrienol (20 μM) and cell lysates were collected and prepared at progressive time intervals as described above. Proteins from lysates were run by SDS PAGE and immunoblotted with the following antibodies: Ras, p-cRaf (ser 338), p-MEK1/2, MEK1/2, pERK 44/42, ERK 44/42 (Cell Signaling) and c-Raf (BD Transduction Laboratories). […] The MIA PaCa2 and SW1990 cells were then tested for AKT inhibition. The cells were treated with δ-tocotrienol (20 μM) for 24 and 48 hours and cell lysates were run by SDS-PAGE and immunoblotted for p-AKT and AKT (Cell Signaling). […] Taken together, the inhibition of downstream effectors of oncogenic Ras signaling by δ-tocotrienol without an effect on Ras protein levels may indicate a negative regulatory role of 8-tocotrienol on the function of oncogenic Ras. The pancreatic ductal epithelial cell proliferative inhibition by δ-tocotrienol was tested to see if it occurs through blocking aberrant signal transduction cascades. Immortalized human pancreatic ductal epithelial cells (HPDE) and human pancreatic ductal epithelial cells that were transformed by stable transfection of a mutated K-ras oncogene (HPDE-K-ras) were used to test the. effect of tocotrienols on the proliferation of HPDE and HPDE-K-ras.

[3] = tested on: AsPc1 pancreatic cancer cells; test: Effect of tocotrienols on pancreatic cancer proliferation (MTT), 72 hours; type: cell-based, human; conditions: AsPc1, 40 to 100 μM, vs vehicle
Excerpt: (§1) FIGS. 11A and B are graphs showing the effect of tocotrienols on pancreatic cancer proliferation (MTT). […] Points, means; bars, SE (n=3).

[4] = tested on: MiaPaCa2 pancreatic cancer cells; test: as above; type: cell-based, human; conditions: MiaPaCa2, 40 to 100 μM, vs vehicle
Excerpt: as §1

[5] = tested on: MiaPaCa2 pancreatic cancer cells; test: Apoptosis by cell death ELISA, 72 hours; type: cell-based, human; conditions: MiaPaCa2, 50 μM
Protocol: (§2) FIGS. 38A and B are graphs showing the effect of tocotrienols on pancreatic cancer survival (Trypan Blue and Cell death ELISA). […] T3=tocotrienol, T=tocopherol, vit E=vitamin E succinate, gem=gemcitabine, 5-FU=fluorouracil.
(§3) MIA PaCa2 cells (3×10^3) were plated in 96 well plates and treated the following day with different compositions of tocoperhol, tocotrienol, gemcitabine, or fluorouracil. The cells were harvested 72 hours later and tested using trypan blue assay and cell death ELISA.

[6] = tested on: MiaPaCa2 pancreatic cancer cells; test: Malignant transformation (Soft Agar) colony formation; type: cell-based, human; conditions: MiaPaCa2, 50 μM, vs vehicle
Protocol: FIG. 20 is a graph showing the effect of tocotrienols on pancreatic cancer malignant transformation (Soft Agar). […] Bars, SE (n=3). *p<0.001 vs. vehicle. **p<0.02 vs. vehicle. ***p<0.05 vs. vehicle. T=tocopherol, T3=tocotrienol.
MiaPaCa2 cells (3×10^3) were cultured as described in the Examples above, in 96-well plates and treated with 50 μM of different tocopherol or tocotrienol.

[7] = tested on: MiaPaCa2 pancreatic cancer cells; test: Cell death by trypan blue assay, 72 hours; type: cell-based, human; conditions: MiaPaCa2, 50 μM
Protocol: as §2, §3

Compound | rel amt (relative value set to the control) ([1]; 24 hours) | MTS assay result, run 1 ([1]; 24 hours) | MTS assay result, run 2 ([1]; 24 hours) | MTS assay result, run 3 ([1]; 24 hours) | MTS assay result, run 4 ([1]; 24 hours) | MTS assay result, run 5 ([1]; 24 hours) | MTS assay result, run 6 ([1]; 24 hours) | MTS assay result, run 7 ([1]; 24 hours) | MTS assay result, run 8 ([1]; 24 hours) | MTS assay result, run 9 ([1]; 24 hours) | rel amt (relative value set to the control) ([1]; 48 hours) | MTS assay result, run 1 ([1]; 48 hours) | MTS assay result, run 2 ([1]; 48 hours) | MTS assay result, run 3 ([1]; 48 hours) | MTS assay result, run 4 ([1]; 48 hours) | MTS assay result, run 5 ([1]; 48 hours) | MTS assay result, run 6 ([1]; 48 hours) | MTS assay result, run 7 ([1]; 48 hours) | MTS assay result, run 8 ([1]; 48 hours) | MTS assay result, run 9 ([1]; 48 hours) | other results
alpha tocotrienol [T3 alpha] | 116 | 0.274 | 0.296 | 0.293 | 0.216 | 0.245 | 0.258 | 0.243 | 0.239 | 0.258 | 93 | 0.336 | 0.325 | 0.343 | 0.327 | 0.39 | 0.376 | 0.322 | 0.286 | 0.338 | rel amt (relative value set to the control) ([1]; 72 hours): 61; MTS assay result, run 1 ([1]; 72 hours): 0.279; MTS assay result, run 2 ([1]; 72 hours): 0.282; MTS assay result, run 3 ([1]; 72 hours): 0.294; MTS assay result, run 4 ([1]; 72 hours): 0.238; MTS assay result, run 5 ([1]; 72 hours): 0.302; MTS assay result, run 6 ([1]; 72 hours): 0.279; MTS assay result, run 7 ([1]; 72 hours): 0.254; MTS assay result, run 8 ([1]; 72 hours): 0.254; MTS assay result, run 9 ([1]; 72 hours): 0.273; proliferation (MTT) [2]: no effect; proliferation (MTT) [3]: no effect; proliferation (MTT) [4]: no effect; apoptosis (Cell death ELISA) [5]: no effect; malignant transformation (Soft Agar) [6]: no effect; cell death (Trypan Blue) [7]: no effect
CC(C)=CCC/C(C)=C/CC/C(C)=C/CC[C@]1(C)CCc2c(C)c(O)cc(C)c2O1 [T3 beta, beta tocotrienol] | 79 | 0.17 | 0.179 | 0.184 | 0.152 | 0.172 | 0.182 | 0.179 | 0.19 | 0.176 | 61 | 0.193 | 0.137 | 0.227 | 0.223 | 0.231 | 0.272 | 0.225 | 0.27 | 0.222 | rel amt (relative value set to the control) ([1]; 72 hours): 69; MTS assay result, run 1 ([1]; 72 hours): 0.349; MTS assay result, run 2 ([1]; 72 hours): 0.316; MTS assay result, run 3 ([1]; 72 hours): 0.328; MTS assay result, run 4 ([1]; 72 hours): 0.298; MTS assay result, run 5 ([1]; 72 hours): 0.323; MTS assay result, run 6 ([1]; 72 hours): 0.287; MTS assay result, run 7 ([1]; 72 hours): 0.281; MTS assay result, run 8 ([1]; 72 hours): 0.275; MTS assay result, run 9 ([1]; 72 hours): 0.307; proliferation (MTT) [2]: significantly inhibited
Cc1c(C)c2c(c(C)c1O)CC[C@@](C)(CCC[C@H](C)CCC[C@H](C)CCCC(C)C)O2 [T alpha, alpha tocopherol] | 111 | 0.249 | 0.25 | 0.253 | 0.207 | 0.253 | 0.238 | 0.27 | 0.254 | 0.247 | 86 | 0.308 | 0.313 | 0.342 | 0.269 | 0.352 | 0.277 | 0.305 | 0.339 | 0.313 | rel amt (relative value set to the control) ([1]; 72 hours): 103; MTS assay result, run 1 ([1]; 72 hours): 0.523; MTS assay result, run 2 ([1]; 72 hours): 0.478; MTS assay result, run 3 ([1]; 72 hours): 0.464; MTS assay result, run 4 ([1]; 72 hours): 0.453; MTS assay result, run 5 ([1]; 72 hours): 0.443; MTS assay result, run 6 ([1]; 72 hours): 0.456; MTS assay result, run 7 ([1]; 72 hours): 0.383; MTS assay result, run 8 ([1]; 72 hours): 0.451; MTS assay result, run 9 ([1]; 72 hours): 0.456; proliferation (MTT) [3]: no effect; proliferation (MTT) [4]: no effect; apoptosis (Cell death ELISA) [5]: no effect; malignant transformation (Soft Agar) [6]: no effect; cell death (Trypan Blue) [7]: no effect
CC(C)=CCC/C(C)=C/CC/C(C)=C/CC[C@]1(C)CCc2cc(O)c(C)c(C)c2O1 [T3 gamma, gamma tocotrienol] | 66 | 0.133 | 0.135 | 0.141 | 0.127 | 0.142 | 0.166 | 0.171 | 0.162 | 0.147 | 37 | 0.095 | 0.116 | 0.111 | 0.128 | 0.159 | 0.147 | 0.167 | 0.152 | 0.134 | rel amt (relative value set to the control) ([1]; 72 hours): 177; MTS assay result, run 1 ([1]; 72 hours): 0.776; MTS assay result, run 2 ([1]; 72 hours): 0.744; MTS assay result, run 3 ([1]; 72 hours): 0.876; MTS assay result, run 4 ([1]; 72 hours): 0.734; MTS assay result, run 5 ([1]; 72 hours): 0.812; MTS assay result, run 6 ([1]; 72 hours): 0.817; MTS assay result, run 7 ([1]; 72 hours): 0.773; MTS assay result, run 8 ([1]; 72 hours): 0.759; MTS assay result, run 9 ([1]; 72 hours): 0.786; proliferation (MTT) [2]: significantly inhibited
